{"source": "patent US20110294952A1", "about": "“Optimized Drug Conjugates” (SynDevRX, priority 2010, published 2011)", "key": {"[1]": {"test": "Aqueous stability of carbamoylfumagillol in buffer", "format": "physicochemical", "details": "for Natural Rate Constant: 37° C., 5 μM", "procedure": "At the appropriate time points, a 50 μL sample was withdrawn and diluted with three volumes of methanol containing propranolol as an internal standard (one solution was made for the entire study). The concentration of carbamoylfumagillol in the solution was analyzed by LC/MS/MS over seven days."}, "[2]": {"test_system": "A549 cells vs HUVEC cells", "test": "A549/HUVEC selectivity", "format": "cell-based, human", "details": "ratio of IC50 values"}, "A549 cells [3]": {"test_system": "A549 cells", "test": "A549 human non-small cell lung carcinoma cell viability assay (CellTiter-Glo)", "format": "cell-based", "details": "small molecules, 72 hours", "protocol": "(§1) Test compounds, small molecules or polymer conjugates, were dissolved in dimethyl sulfoxide to a stock concentration of 5 mg/mL. The test agents were then diluted to an intermediate concentration at 200 μg/mL in 10% DMSO. Further dilutions were completed serially 3-fold in 10% DMSO to produce 12 decreasing concentrations for in-vitro analysis. To achieve the target concentrations of the in-vitro assays, 1 μL of the intermediate drug preparation was delivered to the cells (seeded in a volume of 50 μL). The final DMSO concentration for the tests was 0.2% for all doses of test agent.\nCells were exposed to twelve increasing concentrations of formulated test agent from 2×10^−6 to 4.0 μg/mL for 72 hours. Following 72 hour exposure, 25 μL it of CellTiter-Glo® Reagent was added to each well. The plates were incubated for 60 minutes at 37° C. in a humidified incubator. After incubation, luminescence was recorded using the Molecular Devices AnalystGT multi-mode reader.\nData are expressed as the percent cell growth of the untreated (vehicle) control calculated from the luminescence signals. The surviving fraction of cells is determined by dividing the mean luminescence values of the test agents by the mean luminescence values of untreated control. […]"}, "HCT-116 cells": {"test_system": "HCT-116 cells", "test": "HCT-116 human colon tumor cell viability assay (CellTiter-Glo)", "format": "cell-based", "details": "small molecules, 72 hours, read-out: HCT116 IC50 Average", "protocol": "as §1\n(§2) Data are expressed as the percent cell growth of the untreated (vehicle) control calculated from the luminescence signals. The surviving fraction of cells is determined by dividing the mean luminescence values of the test agents by the mean luminescence values of untreated control. The inhibitory concentration value for the test agent(s) and control were estimated using Prism 5 software (GraphPad Software, Inc.) by curve-fitting the data using the non-linear regression analysis.\nThe human tumor cell lines A549 and HCT-116 were obtained from American Type Culture Collection (Manassas, Va.). […]\nCells were exposed to twelve increasing concentrations of formulated test agent from 2.3×10^−6 to 4.02 μg/mL for 72 hours. […] After incubation, luminescence was recorded using the Molecular Devices AnalystGT multi-mode reader."}, "HUVEC cells": {"test_system": "HUVEC cells", "test": "Human umbilical vein epithelial cell viability assay (CellTiter-Glo)", "format": "cell-based", "details": "small molecules, 72 hours", "protocol": "as §1, §2\nThe Human umbilical vein epithelial cells (HUVEC) were obtained from Lonza (Basel, Switzerland). […]\nHUVEC cells were seeded at 1000 cells per well 24 hours prior to test agent exposure in a volume of 50 μL. […] After incubation, luminescence was recorded using the Molecular Devices AnalystGT multi-mode reader."}, "[4]": {"test": "In vivo pharmacokinetics of polymer conjugate", "set-up": "species or system Sprague-Dawley rats", "details": "SDX-7539 single bolus IV 30 mg/kg, rat plasma", "protocol": "FIG. 6 is a graph showing the plasma concentration of the active metabolite, SDX-7539, as a function of time in Sprague-Dawley rats, to which either the polymer conjugate SDX-7320 (single bolus, intravenous injection, 200 mg/kg) or the small molecule SDX-7539 (single bolus, intravenous injection, 30 mg/kg) has been administered.\nThe polymer conjugate, SDX-7320, or the in vivo release product, SDX-7539 were administered to Sprague-Dawley rats (N=3). Blood was collected over 48 hours after dosing to determine the plasma concentration of SDX-7539 by LC-MS/MS. The LLOQ for SDX-7539 was 2.5 nM. The terminal elimination half-life for SDX-7539 was estimated by fitting a linear regression to the ln [SDX-7539] versus time data. […] Cmax for the polymer is about 2% of the value for the small molecule."}, "A549 cells [5]": {"test_system": "A549 cells", "format": "in vitro ADME, human", "protocol": "Cells were treated as in Example 51 except that at the end of 72 hour exposure to test agent, the cells were frozen (−70° C.) and stored for subsequent evaluation by LC/MS."}}}
{"compound": "CO[C@@H]1[C@H](OC(N)=O)CC[C@]2(CO2)[C@H]1[C@@]1(C)O[C@@H]1CC=C(C)C", "note": "[Compound O-7127-1, Carbamoylfumagillol]", "values": [{"measurement": "Natural Rate Constant", "setting": "[1]; pH 4.0 sodium acetate buffer", "value": 0.0054, "unit": "h⁻¹"}, {"measurement": "Natural Rate Constant", "setting": "[1]; pH 5.3 sodium acetate buffer", "value": 0.0017, "unit": "h⁻¹"}, {"measurement": "decomposition over the seven day period", "setting": "[1]; pH 5.3 to 8.0, 37° C., seven days", "value": "less than 20%"}, {"measurement": "Natural Rate Constant", "setting": "[1]; pH 6.7 potassium phosphate buffer", "value": 0.0010, "unit": "h⁻¹"}, {"measurement": "Natural Rate Constant", "setting": "[1]; pH 8.0 potassium phosphate buffer", "value": 0.0011, "unit": "h⁻¹"}, {"measurement": "A549/HUVEC IC50 ratio", "setting": "[2]", "value": 33.63}]}
{"compound": "CO[C@@H]1[C@H](OC(=O)N[C@@H](C(N)=O)C(C)C)CC[C@]2(CO2)[C@H]1[C@@]1(C)O[C@@H]1CC=C(C)C", "note": "[Compound O-7177, PPI-2458]", "values": [{"measurement": "IC50", "setting": "A549 cells [3]", "value": 0.215, "unit": "ng/mL"}, {"measurement": "IC50", "setting": "HCT-116 cells", "value": 0.236, "unit": "ng/mL"}, {"measurement": "IC50", "setting": "HUVEC cells", "value": 0.101, "unit": "ng/mL"}]}
{"compound": "CO[C@@H]1[C@H](OC(=O)NC2CCC(N)CC2)CC[C@]2(CO2)[C@H]1[C@@]1(C)O[C@@H]1CC=C(C)C", "note": "(stereo partly drawn) [SDX-7539]", "values": [{"measurement": "Cmax", "setting": "[4]", "value": "~15", "unit": "µM"}, {"measurement": "half-life of SDX-7539", "setting": "[4]", "value": "10 to 15", "unit": "min"}]}
{"compound": "poly[HPMA-co-MA-GFLG-N-(6-aminohexyl)carbamoylfumagillol]", "values": [{"measurement": "metabolites identified from treated cells", "setting": "A549 cells [5]", "value": "N-(6-aminohexyl)carbamoylfumagillol, fumagill-6-yl {6-[(aminoacetyl)amino]hexyl}carbamate, and the epoxide hydrolysis product, (3S,7aR)-7a-(hydroxymethyl)-4-methoxy-3-methyl-2-(3-methylbut-2-en-1-yl)octahydro-1-benzofuran-3-ol-5-yl 6-aminohexyl carbamate"}]}
